Experimental data taken from PMC4393105, “tRNA^Glu Increases the Affinity of Glutamyl-tRNA Synthetase for Its Inhibitor Glutamyl-Sulfamoyl-Adenosine, an Analogue of the Aminoacylation Reaction Intermediate Glutamyl-AMP: Mechanistic and Evolutionary Implications” (PLoS ONE, 2015).
“And” between values parts separate entries of the source, which are not always exact repeats. Equal entries are not always repeated.

Tests used:
E. coli GluRS = target: T1, E. coli GluRS (Escherichia coli, UniProt P04805); assay: Isothermal titration microcalorimetry of Glu-AMS binding to GluRS in the absence of tRNA; conditions: no tRNA; for Kd: Kd (dissociation constant), Kd = 1/Kb
T1 construct: His tag (histidine tag) (C); made in house
T1 sequence (P04805 whole entry): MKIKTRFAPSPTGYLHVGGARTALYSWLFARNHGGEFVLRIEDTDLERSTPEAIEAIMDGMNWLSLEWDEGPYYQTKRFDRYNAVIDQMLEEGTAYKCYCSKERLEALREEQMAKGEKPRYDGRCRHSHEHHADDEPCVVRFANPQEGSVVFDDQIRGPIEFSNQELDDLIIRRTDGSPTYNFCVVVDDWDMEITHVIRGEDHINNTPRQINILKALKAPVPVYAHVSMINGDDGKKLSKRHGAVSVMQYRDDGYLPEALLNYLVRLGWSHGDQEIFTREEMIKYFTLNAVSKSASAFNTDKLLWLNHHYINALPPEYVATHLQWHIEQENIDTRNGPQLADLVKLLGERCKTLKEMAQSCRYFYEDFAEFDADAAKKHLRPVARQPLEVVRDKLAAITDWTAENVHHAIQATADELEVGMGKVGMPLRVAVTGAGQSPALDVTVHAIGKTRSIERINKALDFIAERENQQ
Experimental: Overproduction and purification of E. coli GluRS were performed as previously described with the following modifications. A C-terminal histidine-tagged GluRS was used instead of the N-terminal tagged one. The overproduction was induced overnight at 30°C with 1 mM IPTG.
The GluRS solution with or without tRNA was dialyzed overnight in a D-tube dialyzer (Novagen) against 2 L of dialysis buffer (50 mM HEPES-KOH, pH 7.2, 10 mM MgCl2) at 4°C with light stirring. The next morning, the dialyzed solution was recovered and the volume adjusted by adding dialysis buffer to obtain the desired concentration (typically 9 μM GluRS and 11 μM tRNA^Glu). This solution was kept on ice until use. Glu-AMS was diluted in the dialysis buffer to obtain a final concentration of 90 μM. All buffers and solutions were degased with stirring under vacuum. The microcalorimetry experiments were carried out in a VP-ITC 100 microcalorimeter (MicroCal, GE Healthcare) using deionized water as an internal reference for all assays. VPViewer ITC 2000 and Origin v 5.0 softwares (Microcal Software, Inc) were used for data collection and analysis, respectively.
To measure the thermodynamic parameters of the interaction between Glu-AMS and GluRS, in the presence and in the absence of tRNA, a solution containing 9 μM GluRS with or without a stoichiometric excess of tRNA^Glu or S. cerevisiae tRNA^Phe (Table 1) was placed in the sample cell of the microcalorimeter. The following conditions were used for all tests: reference power was set at 12 μcal/s and stirring at 300 rpm, the “high” feedback mode and “No check Temp”, “Fast Equil” and “Auto” ITC equilibration options were selected. The 90 μM Glu-AMS solution was loaded in the injection syringe. After a first injection of 1 μL over 2 s, a series of 39 injections (7.4 μL over 14.8 s) with 240 s between injections was performed. Injections of Glu-AMS in GluRS alone, GluRS•tRNA^Glu or GluRS•tRNA^Phe, were performed at 30°C (303 K), and done in duplicate. Injections of Glu-AMS in GluRS were also performed at 20°C and 37°C (293 and 310 K): 14 injections (20 μL over 40 s) followed the first injection of 1 μL. Each temperature was tested in duplicate, and in triplicate at 37°C.
The following nomenclature was used to describe the interaction at equilibrium between Glu-AMS and either GluRS or a GluRS•tRNA complex: GluRS•Glu-AMS↔GluRS+[…] Kd=[GluRS]×[Glu-AMS]/[GluRS•Glu-AMS] 1/Kd=Kb (binding constant, sometimes referred to as Ka).

[1] = system: Escherichia coli glutamyl-tRNA synthetase (GluRS); design: method as in PMID 15895686; conditions: competitive inhibitor; cited from earlier work
[2] = single ITC run, 293 K, [ligand] 90 µM, [GluRS] 4.15 µM
[3] = single ITC run, 293 K, [ligand] 90 µM, [GluRS] 4.35 µM
[4] = single ITC run, 303 K, [ligand] 90 µM, [GluRS] 4.143 µM
[5] = single ITC run, 303 K, [ligand] 90 µM, [GluRS] 5.355 µM
[6] = single ITC run, 310 K, [ligand] 90 µM, [GluRS] 3.169 µM
[7] = single ITC run, 310 K, [ligand] 90 µM, [GluRS] 3.931 µM
[8] = single ITC run, 310 K, [ligand] 90 µM, [GluRS] 4.015 µM
[9] = 30°C (303 K), weighted mean of ITC runs

Nc1ncnc2c1ncn2[C@@H]1O[C@H](COS(=O)(=O)NC(=O)[C@@H](N)CCC(=O)O)[C@@H](O)[C@H]1O [Glu-AMS, 5’-O-[N-(L-glutamyl)sulfamoyl]adenosine]
Kd (E. coli GluRS; [2]): 0.545 ± 0.162 µM | Kd (E. coli GluRS; [3]): 0.547 ± 0.15 µM | Kd (E. coli GluRS; [4]): 0.281 ± 0.039 µM | Kd (E. coli GluRS; [5]): 0.307 ± 0.028 µM | Kd (E. coli GluRS; [6]): 0.256 ± 0.02 µM | Kd (E. coli GluRS; [7]): 0.318 ± 0.082 µM | Kd (E. coli GluRS; [8]): 0.231 ± 0.037 µM | -TΔSb (E. coli GluRS; [9]): -3.996 ± 0.05 kcal/mol | n (stoichiometry coefficient) (E. coli GluRS; [9]): 0.9998 ± 0.0094 | ΔHb (reaction enthalpy) (E. coli GluRS; [9]): -5.041 ± 0.063 kcal/mol | ΔSb (reaction entropy) (E. coli GluRS; [9]): 13.2 cal/mol·K and 13.19 ± 0.16 cal/mol·K | -TΔSb (E. coli GluRS; 293 K, mean of ITC runs): -4.479 ± 0.218 kcal/mol | n (stoichiometry coefficient) (E. coli GluRS; 293 K, mean of ITC runs): 1.0097 ± 0.0369 | ΔHb (reaction enthalpy) (E. coli GluRS; 293 K, mean of ITC runs): -3.929 ± 0.191 kcal/mol | ΔSb (reaction entropy) (E. coli GluRS; 293 K, mean of ITC runs): 15.29 ± 0.74 cal/mol·K | ΔGb (reaction energy) (E. coli GluRS; 293 K, mean of ITC runs, ΔGb = -RT Ln Kb): -8.396 ± 0.0016 kcal/mol | -TΔSb (E. coli GluRS; 310 K, mean of ITC runs): -2.835 ± 0.036 kcal/mol | n (stoichiometry coefficient) (E. coli GluRS; 310 K, mean of ITC runs): 1.0016 ± 0.0095 | ΔHb (reaction enthalpy) (E. coli GluRS; 310 K, mean of ITC runs): -6.395 ± 0.081 kcal/mol | ΔSb (reaction entropy) (E. coli GluRS; 310 K, mean of ITC runs): 9.146 ± 0.117 cal/mol·K | ΔGb (reaction energy) (E. coli GluRS; 310 K, mean of ITC runs, ΔGb = -RT Ln Kb): -9.326 ± 0.1 kcal/mol | change in heat capacity (ΔCp) (E. coli GluRS; from ΔHb at 293, 303 and 310 K): -143 ± 23 cal/mol·K | -TΔSb (E. coli GluRS; [2]): -4495 ± 320 | n (stoichiometry coefficient) (E. coli GluRS; [2]): 1.014 ± 0.054 | ΔGb (reaction energy) (E. coli GluRS; [2]): -8.397 kcal/mol | ΔHb (reaction enthalpy) (E. coli GluRS; [2]): -3.909 ± 0.279 kcal/mol | ΔSb (reaction entropy) (E. coli GluRS; [2]): 15.34 ± 1.09 cal/mol·K | -TΔSb (E. coli GluRS; [3]): -4465 ± 297 | n (stoichiometry coefficient) (E. coli GluRS; [3]): 1.006 ± 0.050 | ΔGb (reaction energy) (E. coli GluRS; [3]): -8.395 kcal/mol | ΔHb (reaction enthalpy) (E. coli GluRS; [3]): -3.946 ± 0.263 kcal/mol | ΔSb (reaction entropy) (E. coli GluRS; [3]): 15.24 ± 1.01 cal/mol·K | -TΔSb (E. coli GluRS; [4]): -3936 ± 97 | n (stoichiometry coefficient) (E. coli GluRS; [4]): 0.9963 ± 0.0184 | ΔGb (reaction energy) (E. coli GluRS; [4]): -9.083 kcal/mol | ΔHb (reaction enthalpy) (E. coli GluRS; [4]): -5.142 ± 0.127 kcal/mol | ΔSb (reaction entropy) (E. coli GluRS; [4]): 12.99 ± 0.32 cal/mol·K | -TΔSb (E. coli GluRS; [5]): -4018 ± 58 | n (stoichiometry coefficient) (E. coli GluRS; [5]): 1.001 ± 0.011 | ΔGb (reaction energy) (E. coli GluRS; [5]): -9.029 kcal/mol | ΔHb (reaction enthalpy) (E. coli GluRS; [5]): -5.007 ± 0.073 kcal/mol | ΔSb (reaction entropy) (E. coli GluRS; [5]): 13.26 ± 0.19 cal/mol·K | -TΔSb (E. coli GluRS; [6]): -2680 ± 41 | n (stoichiometry coefficient) (E. coli GluRS; [6]): 0.9997 ± 0.0114 | ΔGb (reaction energy) (E. coli GluRS; [6]): -9.349 kcal/mol | ΔHb (reaction enthalpy) (E. coli GluRS; [6]): -6.654 ± 0.102 kcal/mol | ΔSb (reaction entropy) (E. coli GluRS; [6]): 8.646 ± 0.132 cal/mol·K | -TΔSb (E. coli GluRS; [7]): -2978 ± 147 | n (stoichiometry coefficient) (E. coli GluRS; [7]): 1.005 ± 0.037 | ΔGb (reaction energy) (E. coli GluRS; [7]): -9.217 kcal/mol | ΔHb (reaction enthalpy) (E. coli GluRS; [7]): -6.225 ± 0.307 kcal/mol | ΔSb (reaction entropy) (E. coli GluRS; [7]): 9.607 ± 0.473 cal/mol·K | -TΔSb (E. coli GluRS; [8]): -3531 ± 90 | n (stoichiometry coefficient) (E. coli GluRS; [8]): 1.006 ± 0.019 | ΔGb (reaction energy) (E. coli GluRS; [8]): -9.413 kcal/mol | ΔHb (reaction enthalpy) (E. coli GluRS; [8]): -5.873 ± 0.15 kcal/mol | ΔSb (reaction entropy) (E. coli GluRS; [8]): 11.39 ± 0.29 cal/mol·K | Ki [1]: 0.0028 µM
